Results published in patent publication EP0155871A1, “Compounds possessing inhibiting properties in the lignin formation in plants and process for the reduction of their lignin content” (Etablissement Public dit: CENTRE NATIONAL DE LA RECHERCHE …, priority 1984, dated 1985).
Like-named read-outs stand apart in the source and are kept apart here. Blank lines part the entries; values can stand above or below the compound they belong to.

Legend:
Format in all cases: biochemical
CAD de peuplier [1] = target: T1, CAD de peuplier (Populus deltoides, UniProt P31657); assay: in vitro inhibition of isolated poplar CAD; conditions: 0,250mM; sens physiologique, réduction de l'aldéhyde coniférylique, 340 nm, pH 6,5; read-out: inhibition à 0,250mM
T1 construct: la CAD de peuplier isolée selon la méthode deSARNI et al; from tissue
T1 sequence (P31657 1-357): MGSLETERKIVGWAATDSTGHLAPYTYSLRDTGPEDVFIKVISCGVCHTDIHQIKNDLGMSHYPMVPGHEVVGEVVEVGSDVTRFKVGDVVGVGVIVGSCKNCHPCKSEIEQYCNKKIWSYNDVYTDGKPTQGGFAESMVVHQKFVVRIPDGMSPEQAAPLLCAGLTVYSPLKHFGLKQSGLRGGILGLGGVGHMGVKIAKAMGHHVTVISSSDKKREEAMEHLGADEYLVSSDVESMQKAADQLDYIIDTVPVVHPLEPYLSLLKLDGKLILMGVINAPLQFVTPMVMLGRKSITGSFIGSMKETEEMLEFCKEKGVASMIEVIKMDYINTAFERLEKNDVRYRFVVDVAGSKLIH

CAD de peuplier [2] = target: T1, CAD de peuplier; assay: in vitro inhibition of isolated poplar CAD
Excerpt: On rapporte dans le tableau suivant les résultats obtenus concernant l'effet mesuré in vitro d'inhibiteurs selon l'invention à différentes concentrations vis-à-vis de la CAD de peuplier isolée selon la méthode deSARNI et al, dans, EUROP JOURNAL OF BIOCHEMISTRY,139, P.259-265, 1984.
Les mesures des trois derniers résultats ont été réalisées dans le sens physiologique c'est-à-dire en suivant la réduction de l'aldéhyde coniférylique(oxydation du […] mesurée à 340 nm).
Cette inhibition mesurée in vitro dans le sens physiologique (pH 6,5) est 10 à 15 fois plus importante que dans le sens inverse, c'es-t-à-dire alcool→ aldéhyde (pH 8,8).

CAD = target: T2, CAD (Populus deltoides, UniProt P31657); assay: reversibility of CAD inhibition by dialysis of the enzyme-inhibitor mixture; conditions: 2 mM; dialysis against tampon tris/HCl 0,1 M, pH 7,5, 14 heures, 4°C
T2 construct: from tissue
T2 sequence (P31657 1-357): T1 sequence (P31657 1-357)
Excerpt: L'étude des modalités d'action des inhibiteurs de l'invention montre la réversibilité de leur action.

[3] = system: éthanol déshydrogénase (EDH); assay: action on plant zinc enzyme EDH
Excerpt: (§1) L'étude de leur action sur différentes enzymes a également été réalisée.
(§2) On a étudié ainsi l'action d'inhibiteurs selon l'invention sur des enzymes du métabolisme phénolique telles que la phénylalanine ammonialyase (PAL), la catéchol O-méthyl transférase (OMT), l'hydroxycinnamate : CoA ligase (HCl) et la cinnamoyl : CoA réductase (CCR), et des enzymes végétales à zinc, telles que l'éthanol déshydrogénase (EDH), la superoxyde dismutase (SOD) et l'anhydrase carbonique (CA).

[4] = system: superoxyde dismutase (SOD); assay: action on plant zinc enzyme SOD
Excerpt: as §1, §2

[5] = system: anhydrase carbonique (CA); assay: action on plant zinc enzyme carbonic anhydrase
Excerpt: as §1, §2

[6] = system: phénylalanine ammonialyase (PAL); assay: action on phenolic metabolism enzyme PAL
Excerpt: as §1, §2

[7] = system: cinnamoyl : CoA réductase (CCR); assay: action on phenolic metabolism enzyme CCR
Excerpt: as §1, §2

[8] = 2mM, not among the results measured in the physiological direction, read-out: Inhibition % à 2mM

inhibition at 250 µM (CAD de peuplier [1]): 100%
SMILES: COc1cc(C=CC(=O)N2CCSC2=S)ccc1O [FMT]

inhibition at 2000 µM (CAD de peuplier [2]; [8]): 75% | inhibition at 2000 µM (CAD de peuplier [2]; text restatement of the table value (2mM), read-out: taux d'inhibition): ~75% | activité de CAD après dialyse (CAD): restitution totale de l'activité CAD | action sur l'EDH [3]: n'agit pas | action sur la SOD [4]: n'agit pas | action sur l'AC [5]: n'agit pas | action vis à vis de la PAL [6]: actif | action vis à vis de la CCR [7]: actif | inhibition at 250 µM (CAD de peuplier [1]): 100%
SMILES: COc1cc(C=CC(=O)OC(C)(C)C)ccc1O [FTB, férulate de tertiobutyle]

inhibition at 2000 µM (CAD de peuplier [2]; [8]): 40%
SMILES: CC(C)(C)OC(=O)C=Cc1ccc(O)cc1 [PCB, p-Coumarate de tertiobutyle]

inhibition at 2000 µM (CAD de peuplier [2]; [8]): 55%
SMILES: COc1cc(C=CC(=O)OC(C)(C)C)cc(OC)c1O [STB, Sinapate de tertiobutyle]
